Measurements taken from the supplement of paper PMC10307832.

How the values were obtained:
Assay in all cases: relative viability (nuclei count vs DMSO), 5 days (fraction); higher = more cells survive
[1] = compound: C1=CC2=NC=CN=C2C=C1/C=C/3\C(=O)NC(=O)S3 + CC(=O)c1c(C)c2cnc(Nc3ccc(N4CCNCC4)cn3)nc2n(C2CCCC2)c1=O [Palbociclib] (partner 0.5 µM)
Procedure, shortened: (§1)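 Five library-drug doses in √10 steps were combined with a fixed anchor-drug dose, or a single drug was given alone, by pin tool to lung cancer cell lines in 1536-well plates the day after seeding. Nuclei were stained and counted after 5 days. Relative viability is the nuclei count in treated wells over that in vehicle wells, taken as the median of duplicate plates.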

[2] = compound: C1=CC2=NC=CN=C2C=C1/C=C/3\C(=O)NC(=O)S3 + C[C@@H](Oc1cc(-c2cnn(C3CCNCC3)c2)cnc1N)c1c(Cl)ccc(F)c1Cl [Crizotinib] (partner 1 µM)
Procedure, shortened: as §1

[3] = compound: CCN1CCN(c2ccc(Nc3cc(N(C)C(=O)Nc4c(Cl)c(OC)cc(OC)c4Cl)ncn3)cc2)CC1 [BGJ398] + CC(C)C[C@H](NC(=O)[C@H](Cc1ccccc1)NC(=O)c1cnccn1)B(O)O [Bortezomib] (partner 0.002 µM)
Procedure, shortened: as §1

[4] = compound: CCN1CCN(c2ccc(Nc3cc(N(C)C(=O)Nc4c(Cl)c(OC)cc(OC)c4Cl)ncn3)cc2)CC1 [BGJ398] + O=C(CCCCCCC(=O)Nc1ccccc1)NO [Vorinostat] (partner 1 µM)
Procedure, shortened: as §1

Cell Line | relative viability ([1]; first compound 0.02 µM) | relative viability ([1]; first compound 0.06325 µM) | relative viability ([1]; first compound 0.2 µM) | relative viability ([1]; first compound 0.6325 µM) | relative viability ([1]; first compound 2 µM) | relative viability ([2]; first compound 0.02 µM) | relative viability ([2]; first compound 0.06325 µM) | relative viability ([2]; first compound 0.2 µM) | relative viability ([2]; first compound 0.6325 µM) | relative viability ([2]; first compound 2 µM) | relative viability ([3]; first compound 0.01 µM) | relative viability ([3]; first compound 0.03162 µM) | relative viability ([3]; first compound 0.1 µM) | relative viability ([3]; first compound 0.3162 µM) | relative viability ([3]; first compound 1 µM) | relative viability ([4]; first compound 0.01 µM) | relative viability ([4]; first compound 0.03162 µM) | relative viability ([4]; first compound 0.1 µM) | relative viability ([4]; first compound 0.3162 µM) | relative viability ([4]; first compound 1 µM)
NCI-H1650 | 0.218 | 0.43 | 0.37 | 0.347 | 0.343 | 0.91 | 1.19 | 0.974 | 0.966 | 1.22 | 0.22 | 0.203 | 0.184 | 0.174 | 0.19 | 0.476 | 0.493 | 0.537 | 0.422 | 0.448
NCI-H1651 | 0.495 | 0.503 | 0.507 | 0.515 | 0.453 | 0.886 | 0.677 | 0.865 | 0.825 | 0.842 | 0.909 | 0.932 | 1.05 | 1 | 0.911 | 0.473 | 0.544 | 0.554 | 0.579 | 0.405
NCI-H1666 | 0.608 | 0.749 | 0.629 | 0.651 | 0.675 | 0.992 | 1.02 | 1.05 | 1.01 | 1.07 | 0.88 | 0.774 | 0.793 | 0.816 | 0.629 | 1.06 | 0.963 | 1.05 | 0.986 | 0.916
NCI-H1734 | 0.328 |  | 0.333 | 0.352 | 0.318 | 0.665 |  | 0.808 | 0.637 | 0.611 | 0.95 | 0.889 | 0.933 | 0.805 | 0.825 | 0.794 | 0.913 | 0.848 | 0.841 | 0.907
NCI-H1755 | 0.428 | 0.429 | 0.461 | 0.432 | 0.446 | 0.747 | 0.786 | 0.86 | 0.863 | 0.817 | 1 | 0.872 | 0.975 | 0.921 | 0.875 | 0.714 | 0.746 | 0.827 | 0.733 | 0.72
NCI-H1915 | 0.538 | 0.578 | 0.561 | 0.512 | 0.533 | 0.861 | 0.934 | 0.918 | 0.859 | 0.894 | 0.952 | 0.972 | 0.969 | 0.977 | 0.864 | 0.466 | 0.515 | 0.597 | 0.54 | 0.486
NCI-H1975 | 0.465 | 0.683 | 0.563 | 0.56 | 0.394 | 1.02 | 1.01 | 0.937 | 1.03 | 0.97 | 0.431 | 0.405 | 0.404 | 0.384 | 0.319 | 0.677 | 0.794 | 0.758 | 0.677 | 0.672
NCI-H1993 | 0.623 | 0.68 | 0.58 | 0.603 | 0.331 | 0.914 | 1.03 | 0.806 | 0.848 | 0.668 | 1.17 | 0.753 | 1.2 | 1.23 | 1.19 | 0.968 | 0.93 | 0.703 | 0.691 | 0.892
NCI-H2009 | 0.241 | 0.241 | 0.216 | 0.171 | 0.16 | 1.06 | 1.1 | 1.05 | 1.04 | 1.03 | 0.918 | 1.09 | 0.955 | 0.978 | 1.14 | 0.714 | 0.729 | 0.74 | 0.687 | 0.692
NCI-H2023 | 0.405 | 0.408 | 0.314 | 0.337 | 0.27 | 0.707 | 0.693 | 0.608 | 0.61 | 0.613 | 0.966 | 1.07 | 0.978 | 0.883 | 1.12 | 0.673 | 0.683 | 0.715 | 0.664 | 0.54
NCI-H2085 | 0.494 | 0.436 | 0.485 | 0.448 | 0.46 | 0.897 | 0.917 | 0.766 | 0.829 | 0.937 | 1.02 | 1.07 | 1.02 | 0.983 | 1.15 | 0.741 | 0.751 | 0.863 | 0.832 | 0.815
NCI-H2087 | 0.195 | 0.229 | 0.215 | 0.268 | 0.222 | 0.849 | 0.954 | 0.707 | 0.804 | 0.8 | 0.725 | 0.699 | 0.806 | 0.848 | 0.602 | 0.552 | 0.442 | 0.816 | 0.679 | 0.657
NCI-H2126 | 0.329 | 0.404 | 0.358 | 0.369 | 0.339 | 0.995 | 1.11 | 0.97 | 0.974 | 0.957 | 1.14 | 1.1 | 1.11 | 1.11 | 1.12 | 0.768 | 0.787 | 0.861 | 0.775 | 0.765
NCI-H2228 | 0.591 | 0.665 | 0.79 | 0.705 | 0.606 | 0.407 | 0.433 | 0.587 | 0.294 | 0.428 | 1.34 | 1.08 | 0.782 | 0.942 | 0.925 | 0.583 | 0.761 | 0.706 | 0.531 | 0.542
NCI-H2347 | 0.456 | 0.382 | 0.415 | 0.443 | 0.429 | 0.679 | 0.645 | 0.672 | 0.717 | 0.916 | 0.737 | 0.835 | 0.9 | 0.88 | 0.784 | 0.63 | 0.763 | 0.606 | 0.55 | 0.608
NCI-H2405 | 0.517 | 0.585 | 0.528 | 0.512 | 0.436 | 0.865 | 0.847 | 0.826 | 0.869 | 0.798 | 0.976 | 0.99 | 1 | 0.98 | 0.785 | 1.13 | 1.04 | 0.919 | 0.938 | 1.01
